# Source: PubChem BioAssay AID489020 (Sanford-Burnham Center for Chemical Genomics, 2010)
# Active and inactive are the calls of the source.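 Rule for the calls: active = mean IC50, the dose halving TNF-driven NF-kB light signal, at or below a set limit; inactive = the rest.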
# Test system: HEK-293T NF-kB-Luc, TNFa-induced, luminescence, 14 h
# Test: TNFa-driven NF-kB luciferase inhibition, HEK-293T – cell-based, HEK-293T NF-kB-Luc, luminescence, hits from both screens, counter-screen for BCR/TCR NF-kB inhibitor project, dose response (AID 489020);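 note: TNF-alpha stimulus at 0.1 ng/mL added with the seeded cells; selectivity counterscreen for hits from B- and T-cell receptor NF-kB screens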
row,SMILES,IC50
1,Cn1nc(CC(=O)Nc2ccc3c(c2)OCCO3)c2ccccc2c1=O,600 nM
2,COc1cc([N+](=O)[O-])cc(/C=N/NC(=O)c2ccc(NC(=O)c3ccc(C)cc3)cc2)c1O,22500 nM (inactive)
3,C=C1C(=O)O[C@@H]2C[C@@H](C)[C@@H]3C=CC(=O)[C@@]3(C)[C@@H](OC(C)=O)[C@H]12,> 80000 nM (inactive)
4,Cn1nccc1C(=O)NC1CCCc2c1cnn2-c1ccccc1F (stereo not drawn),< 160 nM
5,COc1ccc(/C=C2\SC(=O)N(CCCC(=O)Nc3cc(Cl)ccc3C(=O)O)C2=O)cc1,1120 nM
6,COc1ccc(-c2nc(-c3ccccn3)no2)cc1,2000 nM
7,COc1ccc(CCNc2c(C)c(C)nc3ncnn23)cc1,440 nM
8,CC(=O)c1cn(Cc2ccccc2C#N)c2ccccc12,880 nM
9,CCOc1cc(S(=O)(=O)NCc2ccncc2)ccc1Cl,< 160 nM
10,Nc1ncnc2c1ccn2[C@@H]1O[C@H](CO)[C@@H](O)[C@H]1O,7420 nM
11,CC(=O)OC(C)(C)/C=C/C(=O)[C@](C)(O)C1[C@H](O)C[C@@]2(C)C3CC=C4C(C[C@H](O)C(=O)C4(C)C)[C@]3(C)C(=O)C[C@]12C (stereo partly drawn),11300 nM
12,O=C(Nc1ccc([N+](=O)[O-])cc1)C(=O)Nc1cccc(C(=O)O)c1,4300 nM
13,O=C(CSc1nnnn1C1CC2CCC1C2)Nc1ccnc2ccccc12 (stereo not drawn),< 160 nM
14,Cc1ccc(OCCN2CCN(c3ncnc4sc(C)c(C)c34)CC2)cc1,< 160 nM
15,N#Cc1c(NC(=O)CSc2ncn[nH]2)sc2c1CCCCC2,180 nM
16,COCCn1c(C)cc(C2=NNC(=NC3CC3)SC2)c1C,330 nM
17,O=C(Nc1cccc(C(=O)O)c1)Nc1ccc2c(c1)OCO2,2170 nM
18,CCCCCc1ccc(OCCCC[n+]2cccc(C)c2)c(CCCCC)c1,6070 nM
19,Cc1cc(Cl)c(S(=O)(=O)N2CCCCCC2)cc1OCC(=O)NC1CCCCC1,240 nM
20,COc1cc(CSc2nnnn2-c2ccc(C)cc2)cc(OC)c1OC,470 nM
21,COc1ccc(CCNc2ncnc3sccc23)cc1OC,< 160 nM
22,Cc1cc(Cl)c(S(=O)(=O)N2CCN(c3ccc(F)cc3)CC2)cc1OCC(=O)NC1CCCCC1,< 160 nM

row,SMILES,IC50
1,CN(C(=O)OC(C)(C)C)c1ccc(-c2nc3ccccc3s2)cc1,< 160 nM
2,CC(C)(O)c1[nH]c2ccc(C#N)cc2c1C(C)(C)O,65800 nM (inactive)
3,c1ccc2sc(Sc3ncnc4sccc34)nc2c1,21400 nM (inactive)
4,Cc1nn(C(C)(C)C)c(C)c1/C=N/OC(=O)Nc1ccc(Cl)cc1,< 160 nM
5,COc1ccc(/C=C/c2cc(-c3ccc(C)cc3)o[n+]2C)cc1,6710 nM
6,C=CC(=O)Nc1ccc(Nc2nc(NC3CCC(N(C)C)CC3)nc3c2ncn3C(C)C)cc1 (stereo not drawn),410 nM
7,CN(C)c1cc[n+](CC(=O)c2ccc(-c3ccccc3)cc2)cc1,3960 nM
8,C[C@H](NC(=O)c1nc[nH]c1C(=O)N[C@@H](C)C(=O)OCc1ccccc1)C(=O)OCc1ccccc1,> 80000 nM (inactive)
9,Cc1ccc(Cn2ccsc2=NC(=O)CCl)cc1,15500 nM
10,Cc1cc(C(=O)COC(=O)c2ccccc2O)c(C)n1CC1CCCO1 (stereo not drawn),380 nM
11,OCCCNc1cc(-c2ccnc(Nc3cccc(Cl)c3)n2)ccn1,380 nM
12,Cc1cc(N2CCN(c3nc4ccccc4s3)CC2)n2ncnc2n1,1260 nM
13,COc1ccc(CN(C)c2ccc(S(=O)(=O)N3CCN(C)CC3)cc2[N+](=O)[O-])cc1OC,< 160 nM
14,CCCCCn1c(=O)[nH]c2cc(C(=O)N3CCN(Cc4ccc5c(c4)OCO5)CC3)ccc2c1=O,< 160 nM
15,C[C@@H]1O[C@@H](O[C@@H]2C=C3CCC4C(CC[C@]5(C)[C@@H](c6ccc(=O)oc6)CC[C@]45O)[C@@]3(C)CC2)[C@H](O)[C@H](O)[C@H]1O (stereo partly drawn),< 160 nM
16,COc1ccc(CCNc2ncnc3sc(C)cc23)cc1OC,< 160 nM
17,CCOC(=O)C1CCCN(S(=O)(=O)c2ccc(S(=O)(=O)N(CC)CC)cc2)C1 (stereo not drawn),560 nM
18,CCc1ccc(-c2nc(CS(=O)CC(=O)NCc3ccco3)c(C)o2)cc1 (stereo not drawn),57900 nM (inactive)
19,N#CC(c1cccc(Cl)c1)c1ccc2c(C(F)(F)F)cc(C(F)(F)F)nc2n1 (stereo not drawn),> 80000 nM (inactive)
20,CC1CCCN(c2ccc([N+](=O)[O-])cc2C(=O)c2ccccc2)C1 (stereo not drawn),10100 nM
21,Cn1nc(CC(=O)Nc2ccc3c(c2)CCC3)c2ccccc2c1=O,220 nM
22,CC1CCc2c(sc(NC(=O)CSc3ncn[nH]3)c2C#N)C1 (stereo not drawn),610 nM

row,SMILES,IC50
1,C#CC(=O)N(c1cc(OC)ccc1OC)C(C(=O)NC1CCCC1)c1cccs1 (stereo not drawn),3850 nM
2,COc1ccc(C(=O)CN2C(=O)c3ccccc3S2(=O)=O)cc1,790 nM
3,COc1cccc2c1C(=O)c1c(O)c3c(c(O)c1C2=O)C[C@@](O)(C(=O)CO)C[C@@H]3O[C@H]1C[C@H](N)[C@@H](O)[C@H](C)O1,> 80000 nM (inactive)
4,CCCCCCCCCCCCn1ccc(=N)cc1,2390 nM
5,COc1cc(/C=N/NC(=S)Nc2cccc(C(=O)O)c2)ccc1O,23400 nM (inactive)
6,C#CC(=O)N(c1cccc(OC)c1)C(C(=O)NC1CCCC1)c1cccs1 (stereo not drawn),2650 nM
7,O=C(CCl)N1CCCC1c1ccc2c(c1)OCCO2 (stereo not drawn),9330 nM
8,CCCCCCn1ccc(=N)cc1,13100 nM
9,CCOc1ccc(-c2cc(CCCC(=O)Nc3cccc(OC)c3)no2)cc1,14000 nM
10,O=C(Nc1ccc(Cl)cc1)Nc1cccc(C(=O)O)c1,10600 nM
11,N=c1ccn2c(n1)O[C@H]1[C@@H](CO)[C@H](O)O[C@H]12,> 80000 nM (inactive)
12,CCCCCCCCCCOC(=O)Cn1c(COc2ccccc2OC)[n+](C)c2ccccc21,3080 nM
13,CCN1/C(=C/c2ccc3cc(C)ccc3[n+]2CC)Sc2ccccc21,320 nM
14,COC(=O)Cc1ccc(NC(=O)c2ccc(C(C)(C)C)cc2)cc1,440 nM
15,O=C(O)CSCC(=O)Nc1ccc(C2CCCCC2)cc1,470 nM
16,Nc1nc(Cl)nc2c1ncn2C1CC(O)C(CO)O1 (stereo not drawn),> 80000 nM (inactive)
17,Nc1nc(F)nc2c1ncn2[C@@H]1O[C@H](CO)[C@@H](O)[C@H]1O,7240 nM
18,COc1cc2c(cc1OC)[C@@H]1C(=O)c3ccc4c(c3O[C@@H]1CO2)C[C@H](C(C)C)O4,< 160 nM
19,CCOc1ccc(S(=O)(=O)NCc2ccncc2)cc1,210 nM
20,CCCCCCn1c2c(c(=N)c3c1CCC3)CCC2,950 nM
21,COc1ccccc1C(=O)Nc1nc(-c2ccc(S(=O)(=O)N3CCOCC3)cc2)cs1,1180 nM
22,CN(C)c1ccc(-c2n(C)c3ccccc3[n+]2C)cc1,6580 nM

row,SMILES,IC50
1,COc1cccc(NC(=O)Nc2cccc(C(=O)O)c2)c1,5440 nM
2,Cc1cc(NNC(=O)Nc2cccc(Cl)c2)nc2c1c(C)nn2C,470 nM
3,C#CC(=O)N(c1ccc(OC)c(OC)c1)C(C(=O)NC1CCCC1)c1cccs1 (stereo not drawn),4770 nM
4,COc1cccc2c1C(=O)c1c(O)c3c(c(O)c1C2=O)C[C@@](O)(C(=O)CO)C[C@@H]3O[C@H]1C[C@H](N)[C@H](O)[C@H](C)O1,26900 nM (inactive)
5,COc1cc(SC)ccc1C(=O)Nc1nc2ccccc2[nH]1,200 nM
6,O=C(NCCc1ccccc1)c1ccc2c(c1)OCCCO2,900 nM
7,COc1ccccc1C(=O)Nc1nc2ccccc2[nH]1,800 nM
8,CC[n+]1c(C=C2C=C(C)OC(C)=C2)sc2ccccc21,1900 nM
9,O=C(CCl)N=c1sccn1Cc1ccc(Cl)cc1Cl,21000 nM (inactive)
10,COc1cc2nc(NC(=O)c3ccccc3)sc(=O)c2cc1OC,> 80000 nM (inactive)
11,CN=c1scc(-c2ccccc2F)n1/N=C/c1ccc[nH]1,1210 nM
12,Cc1ccnc(NC(=O)CCCOc2cc(=O)n(C)c3ccccc23)c1,5930 nM
13,CCOc1ccc(NC(=O)Nc2cccc(C(=O)O)c2)cc1,1850 nM
14,Nc1nc(Cl)nc2c1ncn2[C@H]1C[C@H](O)[C@@H](CO)O1,18400 nM
15,CCCCCCCCNc1ncnc2ccccc12,< 160 nM
16,C[n+]1c(-c2ccccc2)c2cc(N)ccc2c2ccc(N)cc21,8250 nM
17,CC(=O)OC[C@]12CCC(C)=C[C@H]1O[C@@H]1[C@H](O)[C@@H](OC(C)=O)[C@@]2(C)[C@]12CO2,< 160 nM
18,CCC(C)(C)c1ccc(OCCCC[n+]2ccc(C)cc2)c(C(C)(C)CC)c1,8160 nM
19,Cc1ccc(C(=O)CN2C(=O)c3ccccc3S2(=O)=O)cc1,1890 nM
20,Cc1nn(-c2ccccc2)c(C)c1/C=N/NC(=O)c1cc(-c2cccs2)[nH]n1,3540 nM
21,Cc1cc([N+](=O)[O-])nn1Cc1ccccc1F,> 80000 nM (inactive)
22,COc1ccc(-c2c[n+]3c(n2-c2ccc(C)cc2)CCCCC3)cc1,1620 nM

row,SMILES,IC50
1,Cn1nccc1C(=O)NC1CCCc2c1cnn2-c1ccc(F)cc1F (stereo not drawn),< 160 nM
2,N=c1c2c(-c3ccccc3)c(-c3ccccc3)n(Cc3ccccc3)c2ncn1CCCn1ccnc1,6970 nM
3,C=CCn1c(C)cc(C(=O)CN2C(=O)c3ccccc3S2(=O)=O)c1C,170 nM
4,COC(=O)CCn1nnc(-c2ccc(C(C)C)cc2)n1,270 nM
5,CCn1c(C)nc2cc(-c3nc4n(n3)Cc3ccccc3-4)ccc21,240 nM
6,C[C@@H]1C[C@@H]2O[C@H]2/C=C\C=C\C(=O)Cc2c(Cl)c(O)cc(O)c2C(=O)O1,7670 nM
7,COC1=CC(=O)[C@]2(C=C1OC)OC[C@@H]1Oc3c(ccc4c3C=CC(C)(C)O4)C(=O)[C@@H]12,610 nM
8,CC(Nc1ncnc2sccc12)c1ccccc1 (stereo not drawn),600 nM
9,O=C(NCCNCCO)C1(C(F)(F)F)C/C(=C\CCO)CCCO1 (stereo not drawn),> 80000 nM (inactive)
10,CCN1/C(=C\c2ccc3ccccc3[n+]2CC)Sc2cc(C)ccc21,630 nM
11,O=C(COC(=O)c1ccc[nH]c1=O)Nc1ccc(N2CCCCC2)cc1,1200 nM
12,CC1(c2ccc3ccccc3c2)NC(=O)N(CC(=O)N2CCN(Cc3ccc(C#N)cc3)CC2)C1=O (stereo not drawn),210 nM
13,CCOc1ccc(-n2c(-c3ccc(OC)cc3)c[n+]3c2CCCCC3)cc1,1060 nM
14,N#Cc1c(NC(=O)CSc2ncn[nH]2)sc2c1CCCC2,610 nM
15,C=C1C(=O)O[C@@H]2C[C@@H](C)[C@@H]3C=CC(=O)[C@@]3(C)[C@@H](O)[C@H]12,> 80000 nM (inactive)
16,COc1cc(NC(C)CCCN)c2ncccc2c1 (stereo not drawn),22900 nM (inactive)
17,Cc1ccc(-c2csc(NC(=O)C3CCN(S(=O)(=O)c4cccs4)CC3)n2)cc1,2140 nM
18,O=C(NCCc1ccccc1F)c1ccc2c(c1)OCCO2,1420 nM
19,COc1cccc2c1C(CO)N1C(C#N)C3CC(C(=O)O)C(C1C2)N3C (stereo not drawn),< 160 nM
20,CCCCCNC(=O)c1ccc2c(=O)n(CC3CCCO3)c(=O)[nH]c2c1 (stereo not drawn),> 80000 nM (inactive)
